# Laboratory results: patent publication US10653756B2, “Identification of CD8+ T cells that are CD161hi and/or IL18R(α)hi and have rapid drug efflux capacity” (FRED HUTCHINSON CANCER RESEARCH CENTER, priority 2008, dated 2020)
# Legend:
# [1] = test system: CMhi and EMhi CD8+ T cells; assay: Daunorubicin-induced apoptosis of sorted CM and EM subsets, Annexin V/DAPI; format: cell-based, human
# Source text: CMhi and EMhi and their non-effluxing IL-18Rα^lo/neg counterparts (CMlo and EMlo) were isolated using negative immunomagnetic selection of CD8^+ T cells with biotinylated antibodies to non-CD8^+ T cells, followed by surface labeling with fluorochrome-conjugated streptavidin to identify non-CD8^+ T cells, CD95, CD62L and IL-18Rα and sorting on a BD FacsARIA flow sorter. CM and EM CD8^+ T cells were defined as streptavidin^−/CD95^+/CD62L^+ or streptavidin^−/CD95^+/CD62L^−, respectively. CMhi and EMhi were defined by high expression of IL-18Rα. Effluxing and non-effluxing CM and EM subsets were cultured for 44 hours in the presence or absence of daunorubicin (an anthracycline chemotherapeutic agent, effluxed by the ABC-B1 cotransporter, MDR-1), with or without MDR-1 blockade with the peripheral benzodiazepine receptor antagonist, PK11195. Cultures were harvested, washed twice with cold PBS and stained with Annexin V and DAPI before analysis.
# MDR-1 = MDR-1 (Homo sapiens, UniProt P08183); conditions: daunorubicin loaded at 2.5 μM, efflux 1 hour at 37° C.; vinblastine 25 μM; PK11195 and cyclosporine A data not shown
# Chain of MDR-1 (P08183 whole entry): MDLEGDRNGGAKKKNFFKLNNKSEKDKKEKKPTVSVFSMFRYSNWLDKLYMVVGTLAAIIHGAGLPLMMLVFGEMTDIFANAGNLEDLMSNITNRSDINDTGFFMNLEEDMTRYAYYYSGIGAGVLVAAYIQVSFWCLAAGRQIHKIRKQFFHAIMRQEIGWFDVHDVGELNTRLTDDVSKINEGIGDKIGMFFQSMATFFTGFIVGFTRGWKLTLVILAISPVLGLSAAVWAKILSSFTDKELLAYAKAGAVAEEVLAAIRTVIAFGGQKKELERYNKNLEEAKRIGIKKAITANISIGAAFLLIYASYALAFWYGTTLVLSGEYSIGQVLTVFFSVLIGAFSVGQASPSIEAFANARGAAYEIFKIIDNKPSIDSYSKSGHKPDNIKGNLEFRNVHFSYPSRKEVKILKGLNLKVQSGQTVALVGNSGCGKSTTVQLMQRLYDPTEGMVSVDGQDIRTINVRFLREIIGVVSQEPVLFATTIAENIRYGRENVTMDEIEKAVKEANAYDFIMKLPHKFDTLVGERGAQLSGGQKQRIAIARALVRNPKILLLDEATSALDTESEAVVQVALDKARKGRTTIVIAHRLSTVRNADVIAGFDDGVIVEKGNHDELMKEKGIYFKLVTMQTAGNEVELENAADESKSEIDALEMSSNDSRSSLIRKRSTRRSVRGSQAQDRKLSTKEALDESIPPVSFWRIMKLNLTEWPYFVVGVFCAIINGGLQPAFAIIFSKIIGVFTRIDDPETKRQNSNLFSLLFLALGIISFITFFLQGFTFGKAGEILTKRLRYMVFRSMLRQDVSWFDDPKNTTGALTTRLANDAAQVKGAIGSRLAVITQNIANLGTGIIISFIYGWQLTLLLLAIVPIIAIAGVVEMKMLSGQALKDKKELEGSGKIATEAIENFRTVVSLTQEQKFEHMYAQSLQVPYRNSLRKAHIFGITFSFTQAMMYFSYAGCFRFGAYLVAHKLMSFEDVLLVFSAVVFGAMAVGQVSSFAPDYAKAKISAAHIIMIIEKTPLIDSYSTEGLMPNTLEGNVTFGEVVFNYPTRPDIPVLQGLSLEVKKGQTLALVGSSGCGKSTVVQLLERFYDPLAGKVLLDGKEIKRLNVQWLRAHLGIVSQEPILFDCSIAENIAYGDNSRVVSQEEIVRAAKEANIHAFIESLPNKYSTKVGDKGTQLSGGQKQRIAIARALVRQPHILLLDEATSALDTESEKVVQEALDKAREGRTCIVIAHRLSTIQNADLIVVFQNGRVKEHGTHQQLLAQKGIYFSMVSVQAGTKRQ
# [2] = test system: CM and EM CD8+ T lymphocytes; assay: Rh123 efflux assay with or without vinblastine, flow cytometry; format: cell-based, human; conditions: PBMC loaded with 10 μg/ml Rh123, efflux 30 minutes at 37° C.
# Protocol: PBMC were separated from fresh peripheral blood by density gradient centrifugation, washed in RPMI 1640/10% bovine serum albumin (herein known as efflux buffer) and resuspended at 1×10^6/ml in ice cold efflux buffer with 10 μg/ml Rh123. PBMC were incubated for 30 minutes on ice before washing three times in ice cold efflux buffer and resuspending in pre-warmed efflux buffer, with or without vinblastine, for 30 minutes at 37° C. At 30 minutes, PBMC were washed once in ice cold PBS/0.2% BSA (FACS buffer) and labeled with antibodies to CD4, CD16, TCRγδ, Vα24, CD3, CD8α, CD95, CD62L, CD161 and IL-18Rα for 20 minutes on ice. After washing in ice cold FACS buffer, samples were analyzed on a BD FacsARIA flow cytometer.
# CM and EM subsets were identified as CD62L^+ or CD62L^− events, respectively, in the CD4^−/CD16^−/TCRγδ^−/Vα24^−/CD3^+/CD8^+/CD95^+ population. Rh123 fluorescence was identified with appropriate compensation and a 530/30 emission filter after laser excitation at 488 nm. Rh123-effluxing events were defined as those with fluorescence lower than the mean fluorescence intensity identified after culture in the presence of vinblastine efflux blockade.
smiles,measurement,setting,value
CCC(C)N(C)C(=O)c1cc2ccccc2c(-c2ccccc2Cl)n1 (centres unmarked) [PK11195],Viability of subsets cultured with PK11195 alone,"[1]; PK11195 without daunorubicin, 44 hours culture",does not impair viability
same,Cell death of CMhi and EMhi on MDR-1 inhibition during daunorubicin culture,"[1]; daunorubicin with PK11195, 44 hours culture",increased cell death
COc1cccc2c1C(=O)c1c(O)c3c(c(O)c1C2=O)C[C@@](O)(C(C)=O)C[C@@H]3O[C@H]1C[C@H](N)[C@H](O)[C@H](C)O1 [daunorubicin],Apoptosis of CMhi and EMhi induced by culture with daunorubicin,"[1]; daunorubicin 0.1 uM, 44 hours culture",resistant to apoptosis
CC[C@]1(O)C[C@@H]2CN(CCc3c([nH]c4ccccc34)[C@@](C(=O)OC)(c3cc4c(cc3OC)N(C)[C@H]3[C@@](O)(C(=O)OC)[C@H](OC(C)=O)[C@]5(CC)C=CCN6CC[C@]43[C@@H]65)C2)C1 [vinblastine],Inhibition of daunorubicin efflux from CMhi and EMhi,MDR-1,inhibition of efflux
same,Rh123 efflux in the presence of vinblastine,[2],blocked
